Laboratory results as given in patent US4301065A, “Novel polypeptides having thymic activity or an antagonistic activity and processes for their synthesis” (Agence Nationale de Valorisation de la Recherche (ANVAR), priority 1977, dated 1981).
In brackets after ≈: the same amount, converted by molar mass. Square brackets hold non-standard residues; d marks the D form. Ends that are not written are not given here. Peptide text beside a SMILES is read from it. pGlu = O=C1CC[C@@H](C(=O)O)N1; βAla = NCCC(=O)O

Legend:
thymectomised mice [1] = assay: Kinetics of the activity in the serum after injection of peptide without carboxymethyl cellulose; assay type: in vivo; settings: 1 ng of polypeptide injected into thymectomised mice; active serum dilutions against time; FIGS. 1 to 3
From the text: These kinetics have also been established for active products, but without any delay action, by way of comparison. The results of these tests have been established in the form of curves in FIGS. 1, 2 and 3 of the accompanying drawings.

[2] = tested on: rosette-forming cells of the spleen of thymectomised mice; assay: Test in vivo on the spleen: correction of the reactivity of rosette-forming spleen cells to azathioprine; settings: Table IV, quantity injected 0,1 ng, individual values
Protocol: (3) Correction of the abnormal reactivity of the cells forming the rosettes of the spleen with azathioprine in thymectomised mice 24 hours after injecting the peptide (0.1, 1 and 10 ng) bonded to the carboxymethyl cellulose.
The tests on the spleen were carried out by determining the quantity of azathioprine which is necessary for inhibiting the rosette-forming cells of the spleen of thymectomised mice after an established time (24 hours and possibly also 48 hours) after the injection of an established quantity of polypeptide (0.1, 1 or 10 ng).

thymectomised mice [3] = assay: Activity in vivo: study of the serum after injection of peptide absorbed on carboxymethyl cellulose
Protocol: The peptides active in vitro were also checked in tests carried out in vivo. Injected into 6 weeks old thymectomised mice and used 8 weeks after the thymectomy, the peptides produce the appearance at the 15th minute in the serum of a biological activity conferring the sensitivity to the azothioprine of the spleen cells forming rosettes. […] (2) Activity in vivo (study of the serum 2 hours and 4 hours after injection into thymectomised mice in different quantities (0.1, 1 or 10 ng) of peptide absorbed on carboxymethyl cellulose). The results of the tests in vivo on the serum and on the spleen, set out in Tables II, III and IV, were established by the procedure as previously indicated.

antibodies = assay: Bonding with the antibodies; assay type: binding; design: key: +: the peptide is bonded; -: is not bonded to the antibodies
From the text: The suitability of the peptides for being bonded to the antibodies is indicated by the + and - symbols, which respectively signify that the peptide is bonded or is not bonded to the antibodies.

[4] = tested on: cells of the spleen forming rosettes (RFC); assay: Rosette test in vitro (thymic activity); assay type: cell-based, adult C 57/B1 6 mice; settings: for Activity in the rosette test (control peptides): in vitro, control peptides of similar molecular weight
Protocol: The thymic activity of the polypeptide is established by incubation in a hemolysis tube with 3×10^6 cells of the spleen originating from adult C 57/B1 6 mice (supplied by the Centre d'Elevage des Animaux de Laboratoire of C.N.R.S. (45 Orleans, La Source), thymectomised 10 to 20 days previously. The thymectomy method is described by M. Dardenne and J. F. Bach in Immunology, 25, 343 (1973) on page 344. The contents of this article are incorporated herein by reference.
The incubation is carried out for 90 minutes at 37° C. in the presence of azathioprine (Az) at a concentration of 10 μg/ml.
On completion of the incubation, 12×10^6 red cells from sheep's blood (SRBC) are added to the cells in the test specimen. The cells in the specimen are centrifuged for 6 minutes at 200 g and carefully brought gently into suspension by rotation on a roller (diameter 10 cm) at a low speed (10 r.p.m.). The RFC are counted in a hematocytometer.
(1) Activity in vitro in the rosette test.

**Q.** How did the “Time of the activity peak in the serum after injection” value (thymectomised mice [1]) turn out when CC(=O)NCCCC[C@H](NC(=O)[C@H](C)NC(=O)[C@@H]1CCC(=O)N1)C(=O)N[C@@H](CO)C(=O)N[C@@H](CCC(N)=O)C(=O)NCC(=O)NCC(=O)N[C@@H](CO)C(=O)N[C@@H](CC(N)=O)C(=O)O [Peptide 62, PyroGlu-Ala-Lys(Ac)-Ser-Gln-Gly-Gly-Ser-Asn] ([pGlu]AK(Ac)SQGGSN-OH) was run?
**A.** ~45 min

**Q.** Which “Spleens (test in vivo) 24 hours after injection: Quantity of azathioprine” value [2] does the source give for C[C@H](NC(=O)[C@@H]1CCC(=O)N1)C(=O)N[C@@H](CCCCN)C(=O)N[C@@H](CO)C(=O)N[C@@H](CCC(N)=O)C(=O)NCC(=O)NCC(=O)N[C@@H](CO)C(=O)NCCC(N)=O [Peptide 86, PyroGlu-Ala-Lys-Ser-Gln-Gly-Gly-Ser-β-Ala-NH2] ([pGlu]AKSQGGS[βAla]-NH2) here?
**A.** 12 µg

**Q.** And the Activity in vivo (thymectomised mice [3]; Table I, thymectomised mice)?
**A.** + (active)

**Q.** What about the “Active or inactive polypeptide (conclusion from Tables I to IV)” value (thymectomised mice [3]; overall judgement of the tests in vitro and in vivo) of the same compound?
**A.** active

**Q.** What about the “Bonding with the antibodies” value (antibodies; Table I) of the same compound?
**A.** -

**Q.** What about the “Bonding with the antibodies” value (antibodies; Table IV) of the same compound?
**A.** -

**Q.** And the Activity in vitro ([4]; Table I, rosette test)?
**A.** + (active)

**Q.** What about the “Active concentration (ng/ml) (test in vitro)” value ([4]; Table III, rosette test, azathioprine 10 μg/ml, 90 minutes at 37° C.) of the same compound?
**A.** 7.10^-3 ng/ml

**Q.** Which “Time of the activity peak in the serum after injection” value (thymectomised mice [1]) does the source give for C[C@H](NC(=O)[C@@H]1CCC(=O)N1)C(=O)N[C@@H](CCCCN)C(=O)N[C@@H](CO)C(=O)N[C@@H](CCC(N)=O)C(=O)N[C@H](C)C(=O)NCC(=O)N[C@@H](CO)C(=O)N[C@@H](CC(N)=O)C(=O)O [Peptide 89, PyroGlu-Ala-Lys-Ser-Gln-D-Ala-Gly-Ser-Asn] ([pGlu]AKSQ[dA]GSN-OH) here?
**A.** ~60 min

**Q.** Which IC50 ([4]; Mus musculus, spleen cells coming from normal mice, read-out: minimal concentration of Az inhibiting 50% of the cells of the spleen forming rosettes (RFC)) does the source give for Cn1cnc([N+](=O)[O-])c1Sc1ncnc2nc[nH]c12 [azathioprine] here?
**A.** 1 µg/mL (≈ 3.61 µM)

**Q.** How did the “Activity in the rosette test (control peptides)” value [4] turn out when angiotensine was run?
**A.** inactive

**Q.** Which “Activity in the rosette test (control peptides)” value [4] does the source give for “substance P (RPKPQQFFGLM; ends and bridges not checked; UniProt P20366 58-68, looked up) [control peptide of similar molecular weight]” here?
**A.** inactive
